Test results reported in PubChem BioAssay (NCI).
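Protocol summary: plate cells (96-well), add compound at 5 concentrations, incubate 48 h, interpolate endpoints linearly. GI50: concentration for 50% inhibition of growth. Definition used: TGI = concentration required for complete inhibition of growth.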

Legend:
Assay in all cases: NCI-60 cell line screen, 48 h
K-562 leukemia = test system: K-562 leukemia
SNB-75 CNS = test system: SNB-75 CNS
OVCAR-3 ovarian = test system: OVCAR-3 ovarian
DLD-1 colon = test system: DLD-1 colon
SF-295 CNS = test system: SF-295 CNS
UO-31 renal = test system: UO-31 renal
HOP-62 NSCLC = test system: HOP-62 NSCLC
XF 498 CNS = test system: XF 498 CNS
HL-60(TB) leukemia = test system: HL-60(TB) leukemia
MDA-MB-231 breast = test system: MDA-MB-231 breast

SMILES	TGI (K-562 leukemia) [µM]	TGI (SNB-75 CNS) [µM]	TGI (OVCAR-3 ovarian) [µM]	TGI (DLD-1 colon) [µM]	TGI (SF-295 CNS) [µM]	TGI (UO-31 renal) [µM]	TGI (HOP-62 NSCLC) [µM]	TGI (XF 498 CNS) [µM]	TGI (HL-60(TB) leukemia) [µM]	GI50 (HL-60(TB) leukemia) [µM]	GI50 (K-562 leukemia) [µM]	GI50 (SNB-75 CNS) [µM]	GI50 (OVCAR-3 ovarian) [µM]	GI50 (MDA-MB-231 breast) [µM]	TGI (MDA-MB-231 breast) [µM]	GI50 (SF-295 CNS) [µM]	GI50 (UO-31 renal) [µM]	GI50 (HOP-62 NSCLC) [µM]
NC(=O)C(=Cc1ccc(CP(=O)(O)O)cc1)C(N)=O	> 100	> 100	> 100	> 100	> 100	> 100	> 100	> 100										
O=C1C2CC=CCC2C(=O)C12CCc1ccccc12 (centres undefined)	> 100	> 100	> 100	> 100	> 100	> 100	> 100	> 100	> 100									
COc1ccc2c(c1)c1nc3cc(C)c(C)cc3nc1n2CCN(C)C	2.43	4.14	2.55		1.95	2.1	3.37		3.36	0.992	0.431	1.29	1.13	1.17	2.76	0.677	0.541	0.899
CC1(C)N=C(N)N=C(N)N1c1ccc(CCc2ccc(Cl)cc2S(=O)(=O)F)c(Cl)c1	> 100	27.3	21.4		> 100	> 100	23		48.1	13	6.81	8.44	4.82	10.3	67.5	4.82	> 100	7
Clc1ccc(C(c2ccc(Cl)cc2)N2CCNCC2)cc1	3.76	5.78	4.13		5.74	4.4	3.71		4.57						4.4			
CN(C(=O)C12C3(C(=O)C(C)(C)C)C4C5(C#N)C3C1(C(=O)C(C)(C)C)C5C42C(=O)C(C)(C)C)C(C)(C)C (centres undefined)	> 50	> 50	> 50	> 50	> 50	> 50	> 50	> 50	> 50									
COC1=C2C[C@H](O)C(C)C[C@@]2(OC)OC1=O (some centres undefined)	> 100	> 100	> 100	> 100	> 100	> 100	> 100	> 100	> 100									
Cc1cccc(Cl)c1NC(=O)c1cnc(Nc2cc(N3CCOCC3)cc(N3CCOCC3)c2)s1	> 10	0.0176	> 10		> 10	0.789	> 10		> 10	9.98	0.00147	0.00147	0.0644	0.0189	> 4.59	0.154	0.0067	0.022
CN[C@@H]1C[C@H]2O[C@@](C)([C@@H]1OC)n1c3ccccc3c3c4c(c5c6ccccc6n2c5c31)C(=O)N[C@H]4O	> 6.56	0.0412	1.99		0.26	0.0547	0.766		0.52		0.129	0.00564	0.101	0.0227	0.509	0.0268	0.0116	0.0187
O=c1nc(NC(c2ccccc2)(c2ccccc2)c2ccccc2)ccn1CCO	> 100	> 100	> 100	> 100	> 100	> 100	> 100		> 100									
O=C1[C@H]2ON(c3ccccc3)C(c3ccccc3F)[C@H]2C(=O)N1c1ccc(Cc2ccc(N3C(=O)[C@@H]4ON(c5ccccc5)C(c5ccccc5F)[C@@H]4C3=O)cc2)cc1 (some centres undefined)	> 100	> 100	> 100	> 100	> 100	> 100	> 100	> 100	> 100									
CCOc1ccccc1N1C(=O)C(=O)C(c2nc3ccccc3o2)/C(=N\N)C1=O (centres undefined)	> 100	> 100	> 100	> 100	> 100	91	> 100		> 100									
C[C@@H](NC(=O)[C@@H](CC(=O)N1CCC(N2CCCCC2)CC1)N1C(=O)[C@@H](N2C(=O)OC[C@@H]2c2ccccc2)[C@H]1/C=C/c1cccc(Cl)c1)c1ccccc1	5.47	4.09	4.49		3.91	5.35	18.4		4.87	2.21	2.63	1.71	1.99	1.9	3.87	1.84	2.03	4.16
COC(=O)c1ccc(NC(=O)c2cc(OC)c(OC)c(OC)c2)cc1	12	> 100	7.77	> 100	> 100	66.9	> 100		4.8									
CCCCOC(=O)c1ccc(NC(=O)CCl)cc1	> 100	5.96	3.3		23.1	2.84	3.96		4.86	2.28	2.98	1.86	1.7	1.63	3.26	10.5	1.39	1.99
COc1cc(F)cc([C@@H](CO)NC(=O)[C@@H](C)N2Cc3ccc(-c4nc(NC5CCOCC5)ncc4Cl)cc3C2=O)c1	> 100	54	> 68.6		85.4	33.6	> 86.2		0.859	< 0.01	0.536	12.5	16.5	< 0.0175	18.7	14.7	0.406	0.0519
CCOC(=O)[C@H]1CSC[C@@H](C(=O)OC)N1	> 100	> 100	> 100	> 100	> 100	> 100	> 100		> 100									
C/C(CC(=O)Nc1ccc(Cl)cc1)=N\NC(=O)C[n+]1ccccc1	> 100	> 100	> 100	> 100	> 100	> 100	> 100	> 100	> 100									
